The source made the active and inactive calls.
Columns and labels:
[1] = biological target: Peroxisome proliferator-activated receptor gamma/Nuclear receptor coactivator 1 (Homo sapiens, UniProt P37231); experiment: (§1) TR-FRET dose response biochemical High Throughput Screening assay for agonists of the steroid receptor coactivator 1 (SRC-1) recruitment by the peroxisome proliferator-activated receptor gamma (PPAR gamma): non-selective agonists. [Related pubchem assays (depositor defined):AID1300, AID1808, AID504735, AID631]; assay type: protein assay
Peroxisome proliferator-activated receptor gamma/Nuclear receptor coactivator 1, sequence (P37231 whole entry): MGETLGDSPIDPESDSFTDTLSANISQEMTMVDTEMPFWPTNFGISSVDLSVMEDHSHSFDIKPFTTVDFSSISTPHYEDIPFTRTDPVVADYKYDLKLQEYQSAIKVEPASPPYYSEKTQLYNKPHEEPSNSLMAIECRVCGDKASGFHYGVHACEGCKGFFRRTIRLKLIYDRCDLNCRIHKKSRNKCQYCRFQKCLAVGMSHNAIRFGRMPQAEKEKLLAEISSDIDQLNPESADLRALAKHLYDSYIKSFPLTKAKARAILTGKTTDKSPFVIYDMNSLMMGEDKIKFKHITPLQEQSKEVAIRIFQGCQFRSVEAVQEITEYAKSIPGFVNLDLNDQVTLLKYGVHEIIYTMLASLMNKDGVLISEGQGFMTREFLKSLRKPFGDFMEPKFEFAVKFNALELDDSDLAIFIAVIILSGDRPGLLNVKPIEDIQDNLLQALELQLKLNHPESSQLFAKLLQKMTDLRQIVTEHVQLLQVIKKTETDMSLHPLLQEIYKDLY
Peroxisome proliferator-activated receptor gamma/Nuclear receptor coactivator 1, sequence (Q15788 whole entry, further chain): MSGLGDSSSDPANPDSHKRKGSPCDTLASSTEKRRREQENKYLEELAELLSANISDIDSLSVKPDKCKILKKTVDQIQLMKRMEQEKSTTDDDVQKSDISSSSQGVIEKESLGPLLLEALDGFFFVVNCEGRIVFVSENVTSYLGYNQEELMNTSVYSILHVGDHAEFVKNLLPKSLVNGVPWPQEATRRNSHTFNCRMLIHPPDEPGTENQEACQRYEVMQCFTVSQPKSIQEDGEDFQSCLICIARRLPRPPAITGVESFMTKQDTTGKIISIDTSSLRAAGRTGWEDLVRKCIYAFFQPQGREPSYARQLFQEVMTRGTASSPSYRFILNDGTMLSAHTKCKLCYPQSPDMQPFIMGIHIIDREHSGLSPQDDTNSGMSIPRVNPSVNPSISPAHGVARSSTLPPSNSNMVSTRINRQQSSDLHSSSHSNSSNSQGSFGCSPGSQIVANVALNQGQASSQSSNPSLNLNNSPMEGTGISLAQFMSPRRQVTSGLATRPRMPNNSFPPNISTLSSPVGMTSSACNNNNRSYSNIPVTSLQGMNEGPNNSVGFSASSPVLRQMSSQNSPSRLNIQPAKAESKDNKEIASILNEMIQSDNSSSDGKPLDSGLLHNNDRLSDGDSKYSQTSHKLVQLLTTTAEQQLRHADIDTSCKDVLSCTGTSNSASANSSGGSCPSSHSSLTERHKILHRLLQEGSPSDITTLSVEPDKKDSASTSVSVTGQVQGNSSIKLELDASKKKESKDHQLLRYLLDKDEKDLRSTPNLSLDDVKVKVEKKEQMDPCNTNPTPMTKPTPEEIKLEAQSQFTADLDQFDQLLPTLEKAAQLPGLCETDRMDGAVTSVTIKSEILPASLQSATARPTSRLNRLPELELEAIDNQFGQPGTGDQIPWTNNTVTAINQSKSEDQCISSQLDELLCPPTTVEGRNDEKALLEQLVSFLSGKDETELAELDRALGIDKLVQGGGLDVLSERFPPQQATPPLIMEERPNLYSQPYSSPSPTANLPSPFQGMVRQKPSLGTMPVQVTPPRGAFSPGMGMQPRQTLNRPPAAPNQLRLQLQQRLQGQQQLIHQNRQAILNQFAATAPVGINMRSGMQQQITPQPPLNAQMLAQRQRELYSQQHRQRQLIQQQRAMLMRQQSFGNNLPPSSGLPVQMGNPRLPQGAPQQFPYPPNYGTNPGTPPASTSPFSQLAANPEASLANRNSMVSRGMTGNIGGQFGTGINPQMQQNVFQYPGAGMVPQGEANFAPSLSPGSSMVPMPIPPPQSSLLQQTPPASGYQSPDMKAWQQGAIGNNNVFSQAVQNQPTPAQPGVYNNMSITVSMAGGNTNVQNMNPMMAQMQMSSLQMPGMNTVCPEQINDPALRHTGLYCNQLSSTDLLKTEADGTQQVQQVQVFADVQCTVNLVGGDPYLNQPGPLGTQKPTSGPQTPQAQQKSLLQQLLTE

[2] = biological target: Peroxisome proliferator-activated receptor gamma/Nuclear receptor coactivator 3 (Homo sapiens, UniProt P37231); experiment: as §1, with “3 (SRC-3)” for “1 (SRC-1)”, “assays: 1301 (Confirmation screen.), 1048 (Primary screen.)]” for “assays (depositor defined):AID1300, AID1808, AID504735, AID631]”; assay type: functional
[3] = biological target: Peroxisome proliferator-activated receptor gamma/Nuclear receptor coactivator 2 (Homo sapiens, UniProt P37231); experiment: TR-FRET dose response biochemical High Throughput Screening assay for agonists of the steroid receptor coactivator 2 (SRC-2) recruitment by the peroxisome proliferator-activated receptor gamma (PPAR gamma): non-selective agonists. [Related pubchem assays: 1297, 1032 ]; assay type: functional
Peroxisome proliferator-activated receptor gamma/Nuclear receptor coactivator 2, sequence (P37231 whole entry): as the sequence (P37231 whole entry) above
Peroxisome proliferator-activated receptor gamma/Nuclear receptor coactivator 2, sequence (Q15596 whole entry, further chain): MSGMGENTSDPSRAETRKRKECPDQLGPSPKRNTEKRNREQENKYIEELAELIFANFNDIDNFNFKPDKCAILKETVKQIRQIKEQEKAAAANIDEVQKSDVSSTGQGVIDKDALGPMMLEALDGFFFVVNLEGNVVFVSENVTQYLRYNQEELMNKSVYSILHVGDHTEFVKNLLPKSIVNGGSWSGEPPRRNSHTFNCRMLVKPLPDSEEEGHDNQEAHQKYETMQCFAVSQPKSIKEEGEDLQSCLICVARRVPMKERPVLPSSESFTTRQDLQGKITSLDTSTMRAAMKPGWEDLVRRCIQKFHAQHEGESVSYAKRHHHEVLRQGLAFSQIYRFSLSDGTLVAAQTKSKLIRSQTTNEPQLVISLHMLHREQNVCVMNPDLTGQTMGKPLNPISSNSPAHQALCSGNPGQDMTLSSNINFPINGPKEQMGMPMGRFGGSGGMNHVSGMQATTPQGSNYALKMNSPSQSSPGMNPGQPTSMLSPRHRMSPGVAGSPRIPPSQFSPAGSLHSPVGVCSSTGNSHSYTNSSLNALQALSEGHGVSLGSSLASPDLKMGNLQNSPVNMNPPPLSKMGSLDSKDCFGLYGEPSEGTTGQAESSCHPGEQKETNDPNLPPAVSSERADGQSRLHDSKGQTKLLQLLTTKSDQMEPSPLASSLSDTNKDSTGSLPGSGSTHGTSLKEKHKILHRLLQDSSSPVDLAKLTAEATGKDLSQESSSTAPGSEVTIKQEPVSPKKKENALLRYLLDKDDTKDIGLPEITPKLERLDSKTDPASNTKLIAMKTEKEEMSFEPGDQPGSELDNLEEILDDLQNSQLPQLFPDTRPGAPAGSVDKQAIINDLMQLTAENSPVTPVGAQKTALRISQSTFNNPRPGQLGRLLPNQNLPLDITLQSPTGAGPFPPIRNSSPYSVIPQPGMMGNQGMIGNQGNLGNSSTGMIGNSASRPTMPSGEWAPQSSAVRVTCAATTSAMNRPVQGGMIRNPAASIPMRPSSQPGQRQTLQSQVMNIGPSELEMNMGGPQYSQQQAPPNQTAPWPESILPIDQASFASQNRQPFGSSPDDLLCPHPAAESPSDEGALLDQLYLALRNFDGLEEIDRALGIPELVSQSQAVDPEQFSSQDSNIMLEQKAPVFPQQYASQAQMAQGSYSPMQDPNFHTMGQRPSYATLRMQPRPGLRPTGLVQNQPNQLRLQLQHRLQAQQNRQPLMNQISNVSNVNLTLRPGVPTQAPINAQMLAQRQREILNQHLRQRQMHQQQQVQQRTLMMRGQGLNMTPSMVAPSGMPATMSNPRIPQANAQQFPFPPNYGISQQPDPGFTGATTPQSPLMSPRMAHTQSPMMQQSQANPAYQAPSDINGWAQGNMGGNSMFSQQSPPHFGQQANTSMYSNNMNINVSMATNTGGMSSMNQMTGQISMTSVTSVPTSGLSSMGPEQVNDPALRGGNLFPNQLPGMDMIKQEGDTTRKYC

[4] = biological target: DNA dC->dU-editing enzyme APOBEC-3A (Homo sapiens, UniProt P31941); experiment: Dose Response confirmation of small molecule APOBEC3A DNA Deaminase Inhibitors via a fluorescence-based single-stranded DNA deaminase assay. [Related pubchem assays (depositor defined):AID493011, AID493024]; assay type: functional
DNA dC->dU-editing enzyme APOBEC-3A, sequence (P31941 whole entry): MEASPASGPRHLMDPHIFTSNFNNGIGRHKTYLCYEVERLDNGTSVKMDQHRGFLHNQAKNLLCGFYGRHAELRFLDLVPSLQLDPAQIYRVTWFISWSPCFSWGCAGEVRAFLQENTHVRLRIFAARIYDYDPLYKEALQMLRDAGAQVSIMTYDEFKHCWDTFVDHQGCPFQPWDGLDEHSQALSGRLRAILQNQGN

[5] = biological target: DNA dC->dU-editing enzyme APOBEC-3G (Homo sapiens, UniProt Q9HC16); assay type: functional;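 also: Dose-response counterscreen measuring inhibition of APOBEC3G DNA deaminase activity, run while confirming APOBEC3A inhibitors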
DNA dC->dU-editing enzyme APOBEC-3G, sequence (Q9HC16 whole entry): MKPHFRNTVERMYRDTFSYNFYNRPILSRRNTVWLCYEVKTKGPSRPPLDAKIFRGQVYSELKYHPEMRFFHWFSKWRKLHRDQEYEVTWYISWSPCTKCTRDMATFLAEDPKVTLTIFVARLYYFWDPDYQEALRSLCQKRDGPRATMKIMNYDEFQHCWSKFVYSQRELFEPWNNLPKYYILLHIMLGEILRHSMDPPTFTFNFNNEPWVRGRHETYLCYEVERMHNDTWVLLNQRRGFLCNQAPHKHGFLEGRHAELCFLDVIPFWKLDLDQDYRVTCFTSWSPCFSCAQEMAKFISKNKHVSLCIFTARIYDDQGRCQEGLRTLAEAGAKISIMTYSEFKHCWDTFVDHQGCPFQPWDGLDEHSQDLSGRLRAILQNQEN

[6] = cytotoxicity toward NIH3T3 fibroblasts, dose response, counter-screen, cell-based, ATP luminescence, mouse fibroblasts (AID 2010); assay type: functional;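 also: cells exposed to compound for about 90 hours before reading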
INS1 = experiment: beta cell apoptosis inhibitors, cytokine rescue, dose response, luminescence, retest (AID 449756); assay type: functional, cell-based; conditions: Rattus norvegicus;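 also: cell death triggered by IL-1 beta plus TNF-alpha plus IFN-gamma mixture; protective hits raise ATP signal compared with cytokine alone wells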
cells = assay type: functional
[7] = Vero E6 cell cytotoxicity, dose response, cytotoxicity control for non-replicating M. tuberculosis project, secondary assay (AID 492998); assay type: functional, VeroE6; conditions: Vero C1008
[8] = THP-1 cell cytotoxicity, dose response, cytotoxicity control for non-replicating M. tuberculosis project (AID 489025); assay type: functional
[9] = HepG2 cell cytotoxicity, dose response, cytotoxicity control for non-replicating M. tuberculosis project (AID 489018); assay type: functional; conditions: Mycobacterium tuberculosis
[10] = Shn3 3'UTR reporter inhibitors, dose response, cell-based, Clone20 osteoblasts, firefly luciferase, cherry-picked (AID 624132); assay type: functional;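 also: firefly luciferase luminescence from reporter carrying the Shn3 3'UTR in osteoblasts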
H4 = experiment: Luminescence Cell-Based Dose Response HTS to Identify Activators of 5'UTR Stem-Loop Driven Prion Protein mRNA Translation in H4 Neuroglioblastoma Cells. [Related pubchem assays: 1829 (Project Summary), 1814 (Primary HTS)]; assay type: functional; conditions: Homo sapiens
[11] = HepG2 cell cytotoxicity, dose response, cytotoxicity control for Shn3 inhibitor project, CellTiter-Glo, cherry-picked (AID 624134); assay type: functional, cell-based
[12] = growth suppression of PTEN-null colon cells, dose response, cell-based, HCT116 PTEN knockout (AID 1047); assay type: functional;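 also: HCT116 colon tumor cells with PTEN knocked out; cells exposed to compound for 60 hours before readout; potency for loss of cell viability measured by luminescence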
[13] = Luminescence Cell-Based Dose Response HTS to Identify Activators of Luciferase Translation or Activity in H4 […] Cells. [Related pubchem assays: 1829 (Project Summary), 1814 (Primary HTS)]; assay type: functional
[14] = growth suppression of beta-catenin-knockout colon cells, dose response, cell-based, HCT116, human colon tumor (AID 1045); assay type: functional;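 also: HCT116 colon tumor cells with beta catenin knocked out; cells exposed to compound for 60 hours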
[15] = Luminescence Cell-Based Dose Confirmation HTS to Identify Activators of 5'UTR Stem-Loop Driven Alpha-Synuclein mRNA Translation in H4 Neuroglioblastoma Cells. [Related pubchem assays: 1829 (Project Summary), 1814 (Primary HTS)]; assay type: functional
[16] = control 3'UTR Renilla luciferase suppression, dose response, counter-screen for Shn3 inhibitor project, cell-based, Clone20-Shn3RL, cherry-picked (AID 624133); assay type: functional
[17] = inhibitors of intracellular T. cruzi replication, confirmation, NIH3T3 host cells, beta-gal luminescence (AID 2044); assay type: functional, cell-based;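 also: intracellular parasites grown in NIH/3T3 mouse fibroblasts as host cells; luminescent beta-galactosidase reporter signal from transgenic T. cruzi replicating inside host cells; inhibitors lower the luminescence signal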
Coagulation factor XII = biological target: T1, Coagulation factor XII (Homo sapiens, UniProt P00748); assay type: functional;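 also: activated factor XIIa alpha cleaving a fluorogenic AMC peptide substrate; inhibitor potency from loss of enzyme activity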
T1 sequence (P00748 whole entry): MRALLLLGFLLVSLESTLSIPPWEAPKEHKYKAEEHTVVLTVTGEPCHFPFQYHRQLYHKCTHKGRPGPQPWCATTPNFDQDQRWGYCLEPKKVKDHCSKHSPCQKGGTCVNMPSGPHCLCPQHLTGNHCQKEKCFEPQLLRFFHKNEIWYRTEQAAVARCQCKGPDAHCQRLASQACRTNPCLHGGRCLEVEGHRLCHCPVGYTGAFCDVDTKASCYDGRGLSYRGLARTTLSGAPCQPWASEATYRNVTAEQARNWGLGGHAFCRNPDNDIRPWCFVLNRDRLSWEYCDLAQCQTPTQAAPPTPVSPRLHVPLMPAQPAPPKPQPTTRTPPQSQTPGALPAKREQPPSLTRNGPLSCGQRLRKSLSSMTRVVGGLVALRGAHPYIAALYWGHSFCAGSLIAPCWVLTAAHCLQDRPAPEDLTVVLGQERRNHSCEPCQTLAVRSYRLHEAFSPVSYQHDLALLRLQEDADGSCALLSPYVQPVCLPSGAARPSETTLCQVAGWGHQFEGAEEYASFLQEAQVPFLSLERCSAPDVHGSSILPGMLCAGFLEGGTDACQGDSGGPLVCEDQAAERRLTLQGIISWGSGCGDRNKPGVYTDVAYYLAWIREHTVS

[18] = biological target: Glyceraldehyde-3-phosphate dehydrogenase (Homo sapiens, UniProt P04406)
Glyceraldehyde-3-phosphate dehydrogenase, sequence (P04406 whole entry): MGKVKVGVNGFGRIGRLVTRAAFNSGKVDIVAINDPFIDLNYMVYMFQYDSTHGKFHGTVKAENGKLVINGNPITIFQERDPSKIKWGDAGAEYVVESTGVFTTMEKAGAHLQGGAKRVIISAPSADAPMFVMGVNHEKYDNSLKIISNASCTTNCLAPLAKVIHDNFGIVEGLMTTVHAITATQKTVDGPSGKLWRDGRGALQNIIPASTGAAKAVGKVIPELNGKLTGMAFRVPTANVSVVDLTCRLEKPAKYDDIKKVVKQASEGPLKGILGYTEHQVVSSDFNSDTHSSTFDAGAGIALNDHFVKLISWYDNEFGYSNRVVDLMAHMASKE

[19] = biological target: T2, Alkaline phosphatase, tissue-nonspecific isozyme (Homo sapiens, UniProt P05186); experiment: human TNAP enzyme inhibitors, SAR follow-up, biochemical, luminescent, dose response (AID 1056)
T2 sequence (P05186 whole entry): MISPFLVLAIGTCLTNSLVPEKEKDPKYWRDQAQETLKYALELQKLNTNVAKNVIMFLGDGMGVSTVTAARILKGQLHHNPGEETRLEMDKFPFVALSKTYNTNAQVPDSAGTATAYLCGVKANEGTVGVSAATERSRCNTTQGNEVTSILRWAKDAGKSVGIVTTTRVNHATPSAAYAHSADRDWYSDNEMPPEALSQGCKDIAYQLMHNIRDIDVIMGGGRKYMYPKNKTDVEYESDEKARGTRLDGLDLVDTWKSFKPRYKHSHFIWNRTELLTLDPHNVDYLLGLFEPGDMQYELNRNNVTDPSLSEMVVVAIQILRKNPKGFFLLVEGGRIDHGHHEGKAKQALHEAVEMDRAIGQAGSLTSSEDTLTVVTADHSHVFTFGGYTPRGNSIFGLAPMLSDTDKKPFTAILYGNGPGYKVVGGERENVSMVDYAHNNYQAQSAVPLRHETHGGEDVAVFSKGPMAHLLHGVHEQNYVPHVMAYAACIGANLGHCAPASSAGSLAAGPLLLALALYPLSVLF

[20] = biological target: T3, Ubiquitin-conjugating enzyme E2 N (Homo sapiens, UniProt P61088); assay type: functional;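 also: Dose-response confirmation in a TR-FRET assay detecting UBC13-driven polyubiquitin chain formation, inhibition measured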
T3 sequence (P61088 whole entry): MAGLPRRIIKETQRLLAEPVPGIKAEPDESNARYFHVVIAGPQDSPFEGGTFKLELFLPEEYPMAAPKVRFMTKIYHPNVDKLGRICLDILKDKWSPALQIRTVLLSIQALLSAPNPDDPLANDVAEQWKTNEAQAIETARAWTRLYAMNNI

[21] = Luminescence Cell-Based Dose Retest to Confirm Inhibitors of Cancer Stem Cells. [Related pubchem assays (depositor defined):AID2717, AID2721]; assay type: functional; conditions: Homo sapiens
[22] = biological target: Eukaryotic translation initiation factor 4E (Mus musculus, UniProt P63073); experiment: eIF4E–eIF4G protein interaction inhibitors, dose response, biochemical, TR-FRET (AID 855); assay type: functional;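 also: potency for disrupting eIF4E binding to eIF4GI seen as loss of FRET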
Eukaryotic translation initiation factor 4E, sequence (P63073 whole entry): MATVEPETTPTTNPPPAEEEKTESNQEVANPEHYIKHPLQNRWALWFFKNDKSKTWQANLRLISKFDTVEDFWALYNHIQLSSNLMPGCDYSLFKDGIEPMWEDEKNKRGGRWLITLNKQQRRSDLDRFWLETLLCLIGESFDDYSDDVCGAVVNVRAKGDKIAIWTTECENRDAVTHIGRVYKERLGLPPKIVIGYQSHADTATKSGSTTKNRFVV

## COc1cccc(OC)c1C(=O)Nc1nnc(-c2cccs2)s1
[1]
  EC50: 17.7 µM (inactive)
[2]
  EC50: > 79.4 µM (not active)
[3]
  EC50: 22 µM (not active)

## CCN1CCN(S(=O)(=O)c2ccc(Cl)c(C(=O)N(C)C(c3ccccc3)c3ccccc3)c2)CC1
[4]
  IC50: 4.6 µM (active)
[5]
  IC50: 5.67 µM (active)

## CN(C)CC(C(=O)c1ccccc1)c1ccccc1 (stereo not drawn)
[6]
  EC50: > 30 µM (not active)
INS1
  AC50: 7.43 µM (active)
cells
  IC50: 4.64 µM (active)
[7]
  CC50: 10.6 µM (active)
[8]
  CC50: 7.72 µM (active)
[9]
  CC50: 12.9 µM (active)
[10]
  AC50: 2.8 µM (active)
H4
  EC50: > 120 µM (not active)
[11]
  AC50: 19.2 µM (active)
[12]
  EC50: 5.35 µM (active)
[13]
  EC50: > 120 µM (not active)
[14]
  EC50: 2.99 µM (active)
[15]
  EC50: > 120 µM (not active)
[16]
  AC50: 8.54 µM (active)
[17]
  EC50: 3.6 µM (active)

## Cc1cc(NC(=O)CCN2C(=O)/C(=C/c3ccccc3F)SC2=S)no1
Coagulation factor XII
  IC50: > 50 µM (inactive)

## c1cncc(-c2cnc3ccccc3c2)c1
[18]
  IC50: > 100 µM (not active)
[19]
  IC50: > 100 µM (inactive)

## COc1ccc2nc(C)cc(N/N=C/c3ccccc3)c2c1
INS1
  AC50: 2.68 µM (active)
cells
  IC50: 0.52 µM (active)
[20]
  IC50: > 20 µM (inactive)
[7]
  CC50: 6.15 µM (active)
[8]
  CC50: 10.9 µM (active)
[9]
  CC50: 9.19 µM (active)
[21]
  AC50: 5.6 µM (active)

## Cc1ccccc1N=Nc1c(C)[nH]n(-c2ccccc2)c1=O
[22]
  IC50: 50 µM (inactive)

## Cn1cnc(-c2cccnc2)c1
[18]
  IC50: > 100 µM (not active)
[19]
  IC50: > 100 µM (inactive)
